Results from patent US5866570A, “Treatment of vascular leakage and related syndrome such as septic shock by administration of metalloproteinase inhibitors” (Wisconsin Alumni Research Foundation, priority 1994, dated 1999).
In brackets after ≈: the same amount, converted by molar mass. Several values for one entry are separate records, joined by “and”; a condition that tells them apart may be missing. Equal entries are not always repeated. Where two headings read alike, the source gives them in different places. Each block holds one compound with its values, some of them ahead of it.

How the values were obtained:
[1] = test system: Lewis lung LL carcinoma; details: cited from earlier work
[2] = at 25° C.; cited from earlier work
[3] = target: T1, recombinant human 72 kD type IV collagenase (Oncologix), APMA activated (Homo sapiens, UniProt P08253); experiment: gelatinase assay, Example 11; format: biochemical; details: 10 ng enzyme, 2 hours preincubation at 37° C., 20 min assay, 3H collagen substrate; read-out: IC50 for inhibition of the 72 kD collagenase type IV
T1 construct: purchased Oncologix
T1 sequence (P08253 110-660): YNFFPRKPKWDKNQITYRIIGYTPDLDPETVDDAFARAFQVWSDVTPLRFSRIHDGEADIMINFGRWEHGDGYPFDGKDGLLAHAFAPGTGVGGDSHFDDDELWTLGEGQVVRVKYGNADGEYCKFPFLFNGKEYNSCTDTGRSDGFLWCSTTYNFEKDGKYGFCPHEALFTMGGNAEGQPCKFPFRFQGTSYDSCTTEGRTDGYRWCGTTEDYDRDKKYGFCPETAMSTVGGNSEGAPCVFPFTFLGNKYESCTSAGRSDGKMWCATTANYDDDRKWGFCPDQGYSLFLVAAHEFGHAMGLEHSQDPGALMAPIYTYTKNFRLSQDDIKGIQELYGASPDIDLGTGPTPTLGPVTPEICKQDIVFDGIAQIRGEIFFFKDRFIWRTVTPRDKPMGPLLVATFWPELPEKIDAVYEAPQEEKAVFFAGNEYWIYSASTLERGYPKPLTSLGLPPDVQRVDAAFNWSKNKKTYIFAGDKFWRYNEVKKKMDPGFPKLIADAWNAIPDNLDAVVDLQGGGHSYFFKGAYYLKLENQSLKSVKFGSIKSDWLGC
Experimental: NET-660 Collagen (Rat Type I), N-[Propionate-2-3-^3 H] Propionylated (NEN Dupont) with a specific activity of 0.4 mCi/mg, rat type I Collagen (Sigma), P-aminophenylmercuric acetate, APMA (Sigma), recombinant human 72 kD type IV collagenase (Oncologix) with a specific activity of at least 1000 μg collagen digested/hour/μg enzyme, collagenase buffer (50 mM Tris-HCl, 5 mM CaCl2, 200 mM NaCl, 0.02% Brij-35, pH 7.6), bovine serum albumin (BSA), 250 mM EDTA, and 10% TCA+0.7% tannic acid. The substrate is prepared by mixing the ^3 H collagen with the cold collagen at a 2/3 ratio and diluting in the collagenase buffer. The final assay concentration of the ^3 H collagen is 1% or between 20,000 to 40,000 cpm. Inhibitors are prepared just prior to use by dissolving in DMSO (final assay concentration<1%) or collagenase buffer.
The 72 kD collagenase enzyme is activated with 0.5 mM APMA for 30 min. at 37° C. and 10 ng of enzyme per assay is used. Inhibitors are preincubated with activated enzyme for 2 hours at 37° C. in collagenase buffer. Substrate is then added to enzyme inhibitor mix and the assay is run for 20 min at 37° C. […] Undigested substrate is precipitated with the TCA/tannic acid solution and soluble counts are determined in a scintillation counter.

[4] = test system: mouse L cell; details: l cells; read-out: ID50 inhibition of colony formation; cited from earlier work
[5] = test system: mouse-embryo fibroblasts; details: cited from earlier work
[6] = test system: S180 tumors; details: therapeutic index in vivo; cited from earlier work
[7] = test system: LS-MET-5 human colon carcinoma cells; experiment: LS-MET-5 i.v. human colon carcinoma metastasis model in nude mice; format: in vivo
Experimental: This example evaluates the effect of probimane on the survival of mice which have been injected with LS-MET-5 human colon carcinoma cells. In particular, probimane was given at 26 mg/kg in CMC, 1 intraperitoneal dose/day starting 1 day prior to intravenous injection of 1 million LS-MET-5 human colon carcinoma cells, at either 3 or 5 doses per week. During the first week the treated mice experienced a small weight drop and the dosage was decreased to 10.4 mg/kg. The control mice received CMC only at 10 μl/g.
Dose and Schedule--was suspended in sterile 1% CMC (carboxymethyl cellulose) […] by sonication in a water bath. […] Mice received drug 24 hours prior to injection of cells and each mouse received one dose/day i.p. for 5 consecutive days with 2 days of recovery or 3 consecutive days with 4 days of recovery. Treatment continued until mouse death or sacrifice.
LS-MET-5--human colon carcinoma metastatic variant cell line was developed at Oncologix, Inc. The cells are maintained in culture in DMEM+10% FBS and are dissociated for injection with trypsin/versine. The cells are resuspended in HBSS and 1 million cells injected in 100 μl into the lateral tail vein of the mouse.
Mice--HSD nu/nu female mice 6 weeks old (18-22 g) are weighed, tagged with a metal ear clip, and radomized for treatment or control groups. Mice are weighed daily and the dose of drug or vehicle is calculated.
Superficial metastases in the regional lymph nodes, dorsal thoracic brown fact pad, thigh muscle and on the rib cage begin appearing around day 22. Tumor growth is rapid with small metastases quickly coalescing to form a solid collar of metastases around the neck region of the mouse.
Although we have improved the incidence of mice with metastases by eliminating mice with less than perfect initial i.v. injections, we are still only 90% incidence. The experiment is terminated when the last mouse with evidence of metastases dies. The remaining mice are necropsied for presence of micro-metastases. We have found evidence that cells were indeed injected iv.

[8] = postamputation schedule LL model

Compound: O=C1CN2CCN3CC(=O)N(CN4CCOCC4)C(=O)[C@H]3[C@H]2C(=O)N1CN1CCOCC1
antimetastatic effect [1, 8]: most effective inhibitor of metastasis

Compound: O=C1CN2CCN3CC(=O)N(CN4CCOCC4)C(=O)[C@H]3[C@@H]2C(=O)N1CN1CCOCC1 (relative stereo)
antimetastatic effect [1, 8]: considerable antimetastatic activity

Compound: O=C1CN2C[C@@H]3C(=O)NC(=O)CN3C[C@@H]2C(=O)N1 (relative stereo) [Compound 23]
antimetastatic effect ([1]; implanted LL carcinoma): no antimetastatic effects
antimetastatic effect ([1]; implanted LL carcinoma, listed as cis-23): does not exhibit any appreciable antimetastatic effect

Compound: O=C1CN2C[C@@H]3C(=O)N(CN4CCOCC4)C(=O)CN3C[C@@H]2C(=O)N1CN1CCOCC1 (relative stereo) [morpholinomethyl derivative of cis-23]
antimetastatic effect ([1]; implanted LL carcinoma): inhibits metastasis

Compound: O=C1CN2C[C@H]3C(=O)NC(=O)CN3C[C@@H]2C(=O)N1 [Compound 22]
antimetastatic effect ([1]; implanted LL carcinoma): no antimetastatic effects

Compound: O=C1CN([C@@H]2C[C@@H](O)[C@@H](O)C[C@@H]2N2CC(=O)NC(=O)C2)CC(=O)N1 [Compound 89, (1β, 2β, 4α, 5α)-4,4'-(4,5-dihydroxy-1,2-cyclohexanediyl)bis(2,6-piperazinedione)]
solubility in water [2]: 29.3 mg/mL (≈ 86.1 mM)

IC50 [3]: 300 µM
Compound: O=C(O)CN(CCN(CC(=O)O)CC(=O)O)CC(=O)O [EDTA, ethylenediaminetetraacetic acid]

Compound: O=C1CN(CCN2CC(=O)NC(=O)C2)CC(=O)N1 [ICRF-154]
IC50 [4]: 7.3 µM
IC50, inhibition of [3H]thymidine incorporation [5]: 2.0 µg/mL

Compound: O=C1CN(CCCN2CC(=O)NC(=O)C2)CC(=O)N1 [ICRF-161]
IC50, inhibition of [3H]thymidine incorporation [5]: inactive

Compound: CCC(CN1CC(=O)NC(=O)C1)N1CC(=O)NC(=O)C1 (centres unmarked) [ICRF-192]
IC50 [4]: 720 µM

Compound: CC(C(C)N1CC(=O)NC(=O)C1)N1CC(=O)NC(=O)C1 (centres unmarked) [ICRF-193]
calculated ratio of maximum tolerated dose to the dose required for 90% inhibition of S180 tumor growth [6]: 6.7
IC50 [4]: 0.09 µM
IC50, inhibition of [3H]thymidine incorporation [5]: 0.035 µg/mL

Compound: CC(C(C)N1CC(=O)NC(=O)C1)N1CC(=O)NC(=O)C1 (centres unmarked) [ICRF-196]
IC50 [4]: 150 µM
IC50, inhibition of [3H]thymidine incorporation [5]: inactive

Compound: CC(CN1CC(=O)N(CN2CCOCC2)C(=O)C1)N1CC(=O)N(CN2CCOCC2)C(=O)C1 (centres unmarked) [Probimane, probimane]
toxicity (body weight) ([7]; 26 mg/Kg i.p. during the first week): weight drop indicated toxicity
Mean IST ([7]; 3×/Week): 19%
Mean Survival ([7]; 3×/Week): 52
Median IST ([7]; 3×/Week): 18%
Median Survival ([7]; 3×/Week): 47
Day of Death ([7]; 3×/Week, 26 then 10.4 mg/kg i.p., single mice): 43 and 44 and 45 and 46 and 52 and 62 and 63
Mean IST ([7]; 5×/Week): 16%
Mean Survival ([7]; 5×/Week): 50
Median IST ([7]; 5×/Week): 18%
Median Survival ([7]; 5×/Week): 47
Incidence of superficial metastases ([7]; Day 29, 3×/Week): 7/11
superficial Mets/Mouse ([7]; Day 29, 3×/Week): 1.1
Incidence of superficial metastases ([7]; Day 29, 5×/Week): 5/11
superficial Mets/Mouse ([7]; Day 29, 5×/Week): 1.2
Incidence of superficial metastases ([7]; Day 30, 3×/Week): 7/11
superficial Mets/Mouse ([7]; Day 30, 3×/Week): 1.9
Incidence of superficial metastases ([7]; Day 30, 5×/Week): 10/11
superficial Mets/Mouse ([7]; Day 30, 5×/Week): 1.2
Incidence of superficial metastases ([7]; Day 31, 3×/Week): 7/11
superficial Mets/Mouse ([7]; Day 31, 3×/Week): 1.9
Incidence of superficial metastases ([7]; Day 31, 5×/Week): 11/11
superficial Mets/Mouse ([7]; Day 31, 5×/Week): 1.1
Incidence of superficial metastases ([7]; Day 32, 3×/Week): 7/11
superficial Mets/Mouse ([7]; Day 32, 3×/Week): 1.9
Incidence of superficial metastases ([7]; Day 32, 5×/Week): 11/11
superficial Mets/Mouse ([7]; Day 32, 5×/Week): 1.8
condition of the treated mice ([7]; mouse, in vivo): pale and grayish in color, with scruffy coats, and were cold to the touch
